In one test the test system is RARs. The test can be described thus: RAR induction in lung of A/J mice exposed to isotretinoin aerosols, all three RARs. In kind it is in vivo. Particulars: lungs exposed to mid levels of isotretinoin, urethane-treated mice. As to the method: Antibodies: Polyclonal antibodies to RARα, β and γ (Santa Cruz Biotechnology Inc., San Francisco, CA) were used with a BM Chemiluminescence Western Blotting Kit (Mouse/Rabbit) (Boehringer Mannheim Corporation, Indianapolis).
Experimental Design: Five lungs each from the urethane-treated vehicle, low dose, and mid dose animals were snap frozen in liquid nitrogen and stored at -70°C for determination of RARs α, β and γ by Western Blot Analysis. In addition, five lungs each from urethane-injected unexposed mice, and untreated control mice were designated for Westerns. The lungs were homogenized and the RARs were determined by standard Western Blotting (21, 22). Due to deaths early in the high dose experiment, no lungs were available for Western Blot Analysis for the high dose exposures, i.e. all tissue was used for lesion quantitation purposes.
Samples: Lung tissue was collected, frozen on dry ice and kept at -70°C until used. A 500 mg portion was diced in small pieces and homogenized in 300 µl of cold PBS using a hand held homogenizer for 2-3 min. Samples were centrifuged at 500 rpm for 5 min or until the supernatant was clear. The pellet was suspended in 400 µl of cold Buffer A [2 µl 0.5 M EDTA, 10 µl 1 mM EGTA, 50 µl 100 mM PMSF, 10 µl 1M DTT, 10 ml (10 mM HEPES pH 7.9 + 10 mM KCl)], and left at ice temperature for 15 min. […]

A further test relates to Lung Tumorigenesis. Kind of test: Lung tumorigenesis inhibition by inhaled isotretinoin in carcinogen-treated A/J mice. The settings on record: for reductions of tumor multiplicity (non-significant): low dose; for reductions in multiplicity of tumor nodules: mid isotretinoin dose. It counts as in vivo. The source says: The A/J mouse is a well-established animal model for preclinical chemoprevention studies. This strain has a hereditary predisposition for lung cancer, the so-called pulmonary adenoma susceptibility (Pas) genes. A strong candidate for one of these genes, Pas-1, is the K-ras protooncogene. Carcinogenesis in this model with NNK as the inciting agent has been studied so that the times required to develop hyperplastic areas, adenomas, and carcinomas are well known. In addition, the timing of molecular changes associated with carcinogenesis has been studied and are similar to those in humans. In both species, K-ras mutations are common early events.
Within 24 h of the last inhalation exposure, animals were euthanized by intraperitoneal injection of pentobarbital and their lungs were removed and fixed in Bouin's solution or flash frozen for RAR determination. The lungs were evaluated in a blinded fashion so that neither carcinogen nor isotretinoin dose levels were known to the evaluator, who visually counted hyperplastic areas and adenomas on the lung pleural surface as previously described The significance of the differences between the mean tumor incidence of the treatment and the control groups was determined using the Mann-Whitney Rank Sum test (Statmost TM, DataMost Corp., Sandy, Utah).

SMILES strings stand for the structures. Entries after “also recorded” stand apart in the source; their conditions may differ.

As for `CC1=C(/C=C/C(C)=C/C=C/C(C)=C\C(=O)O)C(C)(C)CCC1` [13-cis RA, 13-cis-Retinoic Acid], the “induction of all three RARs” value with RARs is reported as “at least three fold”. Moreover, the “reductions of tumor multiplicity (non-significant)” value in the test on Lung Tumorigenesis (BaP treated mice, p<0.13) is 30%; in the test on Lung Tumorigenesis (NNK treated mice, p<0.30), 16%. In addition, the “effect on numbers of tumors” value in the test with Lung Tumorigenesis (low isotretinoin dose) was “not affected by treatment at the 95% confidence level; also recorded: not significantly effective”. Moreover, the “reductions in multiplicity of tumor nodules” value in the test with Lung Tumorigenesis (BaP-treated mice) is 67%; in the test with Lung Tumorigenesis (NNK-treated mice), 88%.

(Values after patent publication EP1263420B1 (priority 2000, dated 2001).)
